Reference: patent US7964598B2 (The J. David Gladstone Institutes, priority 1995, dated 2011)
“And” between values parts separate entries of the source, which are not always exact repeats. Equal values may be shown once. “Also recorded” adds a separate entry of the source.

How the values were obtained:
apoE4 = biological target: T1, apoE4 (Homo sapiens, UniProt P02649, C130R); assay: Emulsion binding assay for domain interaction, apoE4
T1 construct: made in house
Description: (§1) Preparation of emulsion particles. Triolein (160 mg) and L-alpha-Phosphatidylcholine (40 mg) are combined and dried under nitrogen. After the addition of 8 mls of buffer (10 mM Tris, 100 mM KCl, 1 mM EDTA, pH 8.0), the mixture is sonicated in a water bath to obtain a heterogeneous mix of emulsion particles. The particles are harvested by ultracentrifugation (TLA 100.2 rotor, 30,000 rpm for 30 minutes) and the subsequent lipid cake is removed by tube slicing and resuspended in 100 μt 20 mM Phosphate Buffer (PB). Triolein and phospholipid content are measured and total emulsion particle concentration is determined.
(§2) Radiolabelling Freshly denatured and renatured Apolipoprotein E3 and E4 are radiolabelled using Bolton-Hunter Reagent [^125I] (ICN). Specific Activity is determined using Lowry method and Gamma 8000 counter.
(§3) Binding Affinity Assay. […] In glass tubes, 25 μg of protein (with iodinated tracer) was reduced with 1% β-mercaptoethanol. Two hundred and fifty μg of emulsion particles and 2.5 μl of compound (10 mM stock) were added and the final mixture was brought up to 250 μl with 20 mM phosphate buffer (PB). The reaction mixture was then incubated in a 37° C. water bath for 2 hours before being transferred to 1.5 ml ultracentrifuge tubes. Finally, 50 μl of 60% sucrose was mixed with the sample and 400 μl 20 mM PB was carefully layered on top. Using a TLA 100.2 rotor, the tube was spun at 30,000 rpm for 30 minutes and subsequently cut to separate the floating emulsion particle layer from the free protein at the bottom of the tube. These fractions were then combined with the respective half of the actual tube and counted using a Gamma-8000. […] Protein-only assays yielded 94.5-96.6% of protein accumulated in the bottom portion of the tube. In emulsion particle-only assays, 94% of emulsion particles accumulated in the top portion of the tube.
(§4) Preparation of Emulsion Particles and VLDL Binding Affinity Assay. VLDL-like emulsion particles were prepared using triolein (160 mg) and L-alpha-phosphatidylcholine (40 mg), as described. Dong and Weisgraber (1996) supra; and Dong et al. (1994) J. Biol. Chem. 269:22358-22365.

apoE3 = biological target: T2, apoE3 (Homo sapiens, UniProt P02649); assay: Emulsion binding assay, apoE3
T2 construct: made in house
T2 sequence (P02649 19-317): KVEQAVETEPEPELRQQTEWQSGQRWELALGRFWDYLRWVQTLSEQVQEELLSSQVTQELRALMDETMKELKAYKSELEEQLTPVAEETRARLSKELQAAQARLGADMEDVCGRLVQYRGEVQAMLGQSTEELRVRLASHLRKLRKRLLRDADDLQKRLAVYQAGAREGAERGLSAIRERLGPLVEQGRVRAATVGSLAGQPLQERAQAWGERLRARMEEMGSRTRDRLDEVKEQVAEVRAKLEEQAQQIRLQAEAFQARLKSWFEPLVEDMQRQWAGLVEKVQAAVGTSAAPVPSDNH
Description: as §1, §2, §3, §4

YFP-apoE3-CFP = biological target: T3, YFP-apoE3-CFP (Homo sapiens, UniProt P02649); assay: Cell-based FRET assay, YFP-apoE3-CFP
T3 construct: vector signal peptide (pFLAG-CMV3) (N); FLAG (N); expressed in transfected cells
T3 sequence (P02649 19-317): as above
Description: Xu et al. (2004) J. Biol. Chem. 279:25511-25516. FRET—the non-radioactive transfer of photon energy from an excited fluorophore (donor) to another fluorophore (acceptor)—occurs only when the donor and acceptor are in close proximity (<100 Å). Thus, this approach can be used to measure nanometer scale distances.
Xu et al. (2004) J. Biol. Chem. 279:25511-25516. The constructs are depicted schematically in FIG. 29.
(§5) Since the emission spectrum of CFP (460-520 nm) overlaps with the excitation spectrum of YFP (480-520 nm), FLEXstation (Molecular Devices) can be used to measure FRET in living cells expressing YFP-apoE3-CFP or YFP-apoE4-CFP in a high throughput manner. […] Thus, the ratio of FRET to CFP emission in cells expressing YFP-apoE4-CFP is much higher than that in those expressing YFP-apoE3-CFP (FIG. 31). […] Since the FLEXstation can read FRET in both cells and the culture media treated without or with various small molecules, this assay allows one to know whether a small molecule affects apoE4 domain interaction only in the medium (“medium FRET”) or also inside the cell (“intracellular FRET”). In addition, after measurement of the intracellular FRET, the cells can be incubated further with MTT to determine the cytotoxicity of the compound. Thus, the cell-based FRET assay can simultaneously provide three sets of data-intracellular FRET, medium FRET, and cytotoxicity.
Quantifying FRET in Transfected Neuro-2a Cells—Stably transfected Neuro-2a cells expressing YFP-apoE3-CFP or YFP-apoE4-CFP at similar levels were selected by fluorescence activated cell sorter (FACS). YFP and CFP images of transfected cells were acquired with the Meta Detector, and their fluorescence intensities were analyzed with the mounted computer. The FRET signal was calculated as the ratio of YFP to CFP fluorescence intensity under CFP excitation. For each YFP-apoE-CFP construct, the FRET signal was measured in at least 12 cells from different fields.
Quantifying FRET in the Culture Medium—Neuro-2a cells stably expressing YFP-apoE3-CFP or YFP-apoE4-CFP and wildtype cells were grown in T175 flasks to 90% confluence and incubated with serum-free minimum essential medium containing N2 supplement for 24 h. The conditioned medium (20 ml/flask) was concentrated about 20-fold with Centriplus-YM-10 concentrators (Amicon, Bedford, Mass.), dialyzed against PBS, illuminated at the CFP excitation wavelength (430 nm), and scanned for emission spectrum. The FRET signal was calculated as the ratio of emission at 525 nm (YFP) to that at 475 nm (CFP). Conditioned medium from cells expressing apoE3-CFP or apoE4-CFP was used to determine baseline fluorescence in the absence of FRET.

YFP-apoE4-CFP cells = assay: MTT cytotoxicity assay; assay type: cell-based, mouse; conditions: 5-10 μM
Description: as §5

Neuro-2a cells [1] = assay: Aβ-induced lysosomal leakage (cytosolic β-hexosaminidase); assay type: cell-based, mouse
Description: The cytosolic fraction was obtained by ultracentrifugation, and the cytosolic β-hexosaminidase activity was measured.
Quantitation of the lysosomal enzyme β-hexosaminidase activity in the cytosol indicates lysosomal leakage. […] After incubation the cells were washed and cytosolic fractions were isolated as described in Materials and Methods. The enzymatic activity of β-hexosaminidase was assayed in 20 μg of cytosolic protein for each sample.
Lysosomal leakage was quantitated by assaying cytosolic 0-hexosaminidase activity. […] Conditioned media were prepared as described above. Apoptosis was quantitated by measuring DNA fragmentation.

Neuro-2a cells [2] = assay: Aβ-induced apoptosis (DNA fragmentation assay); assay type: cell-based, mouse
Description: DNA Fragmentation Assay—DNA fragmentation of apoptotic cells was determined with Cell Death Detection ELISA kits (Roche, Indianapolis, Ind.).
FIG. 38. […] Control cells were not treated with Aβ1-42. Apoptotic cell death was measured with a DNA fragmentation assay. Values are the mean±S.D. of three separate experiments.
FIGS. 39A and 39B. […] Lysosomal leakage was quantitated by assaying cytosolic 0-hexosaminidase activity. […] Conditioned media were prepared as described above. Apoptosis was quantitated by measuring DNA fragmentation.

Water solubility = assay type: physicochemical
[3] = follow-up assay, second E4 control
[4] = initial assay, 2.5 μl of compound (10 mM stock) in 250 μl, 37° C. 2 hours

T1 sequence (P02649 19-317 C130R): as the sequence (P02649 19-317) above, with C112R counted along it

With `O=S(=O)([O-])c1ccc2c(c1)c(Nc1ccc(S(=O)(=O)O)cc1)cc1c2nc2ccccc2[n+]1-c1ccccc1` [GIND-25, azocarmine-G] the “apoE4 domain interaction / binding of apoE4 to VLDL-like emulsion particles” value (apoE4) was “capable of blocking apoE4 domain interaction; also recorded: inhibited significantly”, the “E4 + cpd n = 3, % bound” value (apoE4; follow-up assay) was 57% and the “E4 + cpd n = 3, % free” value (apoE4; follow-up assay) was 43%. For the same compound, the “E4 control, % bound” value (apoE4; [3]) was 46%, the “E4 control, % free” value (apoE4; [3]) was 54% and the “E4 + cpd, % bound” value (apoE4; [4]) was 12% and 15%. The “E4 + cpd, % free” value (apoE4; [4]) was 88% and 85%, the “binding of apoE3 to the emulsion particles” value (apoE3) was “no significant effect” and the “E3 + compound, % bound” value (apoE3; follow-up assay) was 30%. For the same compound, the “E3 + compound, % free” value (apoE3; follow-up assay) was 70%, the “ratio of FRET to CFP emission in cells expressing YFP-apoE3-CFP” value (YFP-apoE3-CFP; intracellular) was “none of these compounds altered significantly” and the “ratio of FRET to CFP emission in media of YFP-apoE3-CFP cells” value (YFP-apoE3-CFP; medium) was “none of these compounds altered significantly”. The “cytotoxicity (MTT assay)” value (YFP-apoE4-CFP cells) was “did not cause significant cytotoxicity”, the “lysosomal leakage, cells with medium alone or medium containing apoE3 plus Aβ1-42” value (Neuro-2a cells [1]) was “no significant effect” and the “apoE4 potentiation of Aβ-induced lysosomal leakage” value (Neuro-2a cells [1]; 5 μM, apoE4 conditioned medium, Aβ1-42 20 μM) was “block; also recorded: abolish”. For the same compound, the “apoptosis, cells with medium alone or medium containing apoE3 plus Aβ1-42” value (Neuro-2a cells [2]) was “no significant effect”, the “apoE4 potentiation of Aβ-induced apoptosis” value (Neuro-2a cells [2]; apoE4 conditioned medium, Aβ1-42) was “block; also recorded: abolish” and the water solubility (Water solubility) was “water-soluble”.
